ChEMBL document CHEMBL1151132, “Autooxidation Studies on the Marine Sesterterpene Tetronic Acid, Variabilin” (J Nat Prod, 1989)

Key:
[1] = Cytotoxicity against […] BSC cells at 20 ug /6 mm disk; assay type: cell-based
Human alphaherpesvirus 1 [2] = experiment: Antiviral activity against HSV1 infected in […] BSC cells at 20 ug/6 mm disk; assay type: functional
Poliovirus 1 [3] = experiment: Antiviral activity against PV1 infected in […] BSC cells at 20 ug/6 mm disk; assay type: functional
[4] = Cytotoxicity against […] BSC cells at 2 ug /6 mm disk; assay type: cell-based
Poliovirus 1 [5] = experiment: Antiviral activity against PV1 infected in […] BSC cells at 2 ug/6 mm disk; assay type: functional
Human alphaherpesvirus 1 [6] = experiment: Antiviral activity against HSV1 infected in […] BSC cells at 2 ug/6 mm disk; assay type: functional
[7] = Cytotoxicity against […] BSC cells at 5 ug /6 mm disk; assay type: cell-based
Poliovirus 1 [8] = experiment: Antiviral activity against PV1 infected in […] BSC cells at 5 ug/6 mm disk; assay type: functional

Structure (SMILES) | inhibition zone (IZ) [1] [mm] | inhibition zone (IZ) (Human alphaherpesvirus 1 [2]) [mm] | inhibition zone (IZ) (Poliovirus 1 [3]) [mm] | inhibition zone (IZ) [4] [mm] | inhibition zone (IZ) (Poliovirus 1 [5]) [mm] | inhibition zone (IZ) (Human alphaherpesvirus 1 [6]) [mm] | inhibition zone (IZ) [7] [mm] | inhibition zone (IZ) (Poliovirus 1 [8]) [mm]
COC1=C(C)C(=O)O/C1=C\C(C)CCC/C(C)=C/CC/C(C)=C/CCC1(O)C(OC)OC(OC)C1O (mixture of isomers) | 1 | 4 | 4 |  |  |  |  | 
COC1=C(C)C(=O)O/C1=C\C(C)CCC/C(C)=C/CC/C(C)=C/CCC1=CC(O)OC1=O (mixture of isomers) | 4 |  |  | 2 | 2 |  |  | 
CC1=C(O)/C(=C/C(C)CCC/C(C)=C/CC/C(C)=C/CCc2ccoc2)OC1=O (stereo unspecified) [VARIABILIN] |  |  |  | 1 | 4 | 4 |  | 
C/C(=C\CCc1ccoc1)CC/C=C(\C)CCCC(C)CC(=O)O (stereo unspecified) |  |  |  |  |  |  | 2 | 2
COC1=C(C)C(=O)O/C1=C\C(C)CCC/C(C)=C/CC/C(C)=C/CCC1=CC(=O)OC1O (mixture of isomers) | 2 | 4 | 4 | 1 | 2 |  |  | 
